Source: patent US20070066595A1, “Selective estrogen receptor modulators” (priority 2004, published 2007)
Like-named read-outs stand apart in the source and are kept apart here. One block for each compound: values may come before it.

How the values were obtained:
[1] = tested on: immature (3 week old) female rats, estrogen-induced uterine weight; assay: 3-Day Rat Uterus Antagonist Assay; type: in vivo; details: 3 days, with E2 0.1 mg/kg; for inhibition of the estrogen-induced response: 1.0 mg/kg oral, uterine weight/body weight ratio
Description: 3-Day Rat Uterus Antagonist Assay: This model for uterine antagonism utilizes immature (3 week old) female rats that are highly sensitive to estrogenic stimulation of the uterus given that their circulating estrogen levels are prepubertal. The uteri from immature rats are fully responsive to exogenous estrogen, yet are quiescent in the absence of exogenous estrogen. Administration of exogenous estrogen to immature rats produces a reliable elevation of uterine weight, which can be used to study uterine antagonist effects. The rats are treated with both estradiol and 4 different concentrations of a compound of the present invention for 3 days and then uterine wet weights are measured.
Nineteen to twenty-one day old (or 45-50 g) female rats are orally treated with E2 (0.1 mg/kg, a maximal stimulatory estrogenic stimulus for reliably increasing uterine weight) and 10, 1.0, 0.1 and 0.01 mg/kg test compound for 3 days, 6 rats per group. Test compounds are dissolved in 20% β-hydroxycyclodextrin and administered by oral gavage in a volume of 0.2 mL daily (15 min. prior to the ethynyl estradiol gavage). A vehicle control, E2 alone and E2+raloxifene are also done as controls. The animals are fasted overnight following the final dose. On the following morning, the animals are weighed, then euthanized (by carbon dioxide asphyxiation) and the uteri rapidly collected (via a mid-line ventral incision) and weighed.
Uterine weight/body weight ratios (UWR) are calculated for each animal. The percent inhibition of the estrogen-induced response is then calculated by the following formula: percent inhibition=100×(UWRestrogen−UWRtest compound/UWRestrogen−UWRcontrol). ED50 values are derived from a semi-log regression analysis of the linear aspect of the dose response curve. Both the UWR data and the percent inhibition data are statistically analyzed by one way analysis of variance (ANOVA) with post-hoc testing by Fisher's PLSD when indicated by a p<0.05. Statistical analyses are performed using the Statview® 4.0 software package.

[2] = tested on: mature F344 female rats, serum LH and estradiol; assay: 10-Day Rat Hormone (Ovarian Stimulation) Screen; type: in vivo; details: oral gavage 10 days; serum about 2 hours after 10th dose; RIA
Method: 10-Day Rat Hormone (Ovarian Stimulation) Screen: An initial, first screen for ovarian toxicity is conducted using a 10-day rat hormone study to measure estradiol and luteinizing hormone levels after compound administration. This screen is conducted by administering compound by oral gavage for 10 days to mature (9-10 week old) F344 female rats. Trunk blood is collected by rapid decapitation for evaluation of LH and estradiol levels approximately 2 hours after the 10th dose. Serum, obtained by centrifugation, is removed and stored frozen below −60° C. until assayed. Serum levels of LH and estradiol are measured using radioimmunoassay (RIA) methods.
Rat LH primary antibody and reference preparations (rat LH:RP-3) are obtained from Dr. A. F. Parlow, Director, Pituitary Hormones and Antisera Center, Harbor-UCLA Medical Center, Torrance, Calif. The LH assay upper limits of detection are 30 ng/mL and the lower limits of detection are 0.1 ng/mL for the 100 μl samples.
E2 Clinical Assays. DiaSorin s.r.l., Saluggia (Vercelli), Italy. The upper limit of detection is 1000 pg/mL and the lower limit of detection is 5 pg/mL.

[3] = tested on: Ishikawa human endometrial tumor cells; assay: Ishikawa Cell Proliferation Assay (alkaline phosphatase readout; agonist and antagonist modes); type: cell-based
Method: Ishikawa Cell Proliferation Assay: This assay measures cell proliferation (using an alkaline phosphatase readout) in both an agonist mode in the presence of a compound of the present invention alone, and in an antagonist mode in which the ability of a compound of the present invention to block estradiol stimulation of growth is measured.
Ishikawa human endometrial tumor cells are maintained in MEM (minimum essential medium, with Earle's salts and L-Glutamine, Gibco BRL, Gaithersburg, Md.), supplemented with 10% fetal bovine serum (FBS) (V/V), (Gibco BRL). One day prior to assay, growth media is changed to assay medium, DMEM/F-12 (3:1) (Dulbecco's Modified Eagle Medium: Nutrient Mixture F-12, 3:1 Mixture, phenol red-free, Gibco BRL) supplemented with 5% dextran coated charcoal stripped fetal bovine serum (DCC-FBS) (Hyclone, Logen, Utah), L-Glutamine (2 mM), MEM sodium pyruvate (1 mM), HEPES (N-[2-hydroxyethyl]piperazine-N′-[2-ethanesulfonic acid]2 mM) all from Gibco BRL). After an overnight incubation, Ishikawa cells are rinsed with Dulbecco's Phosphate Buffered Saline (1×) (D-PBS) without Ca^+2 and Mg^+2 (Gibco BRL), and trypsinized by a 3 minute incubation with 0.25% Trypsin/EDTA, phenol red-free (Gibco BRL). Cells are resuspended in assay medium and adjusted to 250,000 cells/mL. Approximately 25,000 cells in a 100 ul media are added to flat-bottom 96 wells microculture plates (Costar 3596) and incubated at 37° C. in a 5% CO2 humidified incubator for 24 hours. […]
For the antagonist mode, plates receive 25 μl/well of 6 nM E2 (β-Estradiol, Sigma, St. Louis, Mo.) followed by 25 μl/well of a diluted compound of the present invention (at 6× the final concentrations). […] After a 20-minute incubation, plates are read on a spectophotometer at 405 nm.
The data is fitted to a linear interpolation to derive EC50 (for agonist mode) or IC50 (for antagonist mode) values. For the antagonist mode, a % efficacy for each compound is calculated versus E2 (1 nM) alone. For the agonist mode, a % efficacy for each compound is calculated versus the response to tamoxifen.

circulating LH levels [2]: did not significantly elevate
circulating estradiol levels [2]: did not significantly elevate
SMILES: CS(=O)(=O)C1CC=C(c2ccc3cc(O)ccc3c2Oc2ccc(OCCN3CCCCC3)cc2)CC1.Cl (racemic) [Example 2, (+/−)-6-(4-Methanesulfonyl-cyclohex-1-enyl)-5-[4-(2-piperidin-1-yl-ethoxy)-phenoxy]-naphthalen-2-ol Hydrochloride]
inhibition of the estrogen-induced response [1]: inhibit the estrogen-induced response

SMILES: CS(=O)(=O)C1CCC(c2ccc3cc(O)ccc3c2Oc2ccc(OCCN3CCCCC3)cc2)CC1.Cl (stereo not drawn) [Example 3, 6-cis-and-trans-(4-Methanesulfonyl-cyclohexyl)-5-[4-(2-piperidin-1-yl-ethoxy)-phenoxy]-naphthalen-2-ol Hydrochloride]
inhibition of the estrogen-induced response [1]: inhibit the estrogen-induced response

IC50 ([3]; antagonist mode, block of estradiol stimulation): 7.2 nM
SMILES: Cl.O=S1(=O)CC=C(c2ccc3cc(O)ccc3c2Oc2ccc(OCCN3CCCCC3)cc2)CC1 [Example 9, 6-(1,1-Dioxo-1,2,3,6-tetrahydro-1λ^6-thiopyran-4-yl)-5-[4-(2-piperidin-1-yl-ethoxy)-phenoxy]-naphthalen-2-ol Hydrochloride]
Emax ([3]; agonist mode, versus the response to tamoxifen, read-out: relative % efficacy): 19%
Emax ([3]; antagonist mode, versus E2 (1 nM) alone, read-out: % efficacy (inhibition of the 1 nM estradiol response)): 97.9%
inhibition of the estrogen-induced response [1]: inhibit the estrogen-induced response
% antagonism ([1]; oral): 72.6%
ED50 ([1]; oral): 0.17 mpk

SMILES: Cl.O=S1(=O)CCC(c2ccc3cc(O)ccc3c2Oc2ccc(OCCN3CCCCC3)cc2)CC1 [Example 10, 6-(1,1-Dioxo-hexahydro-1λ^6-thiopyran-4-yl)-5-[4-(2-piperidin-1-yl-ethoxy)-phenoxy]-naphthalen-2-ol Hydrochloride]
inhibition of the estrogen-induced response [1]: inhibit the estrogen-induced response
